Measurements reported in PubChem BioAssay AID1963841 (Molecular Pharmacology Branch, DTP, NCI, 2024).

Tested on: 439559-082-T-J2-PDC spheroid viability
Experiment: Anticancer human tumor 439559-082-T-J2-PDC patient-derived colon adenocarcinoma cell line growth inhibition [POLQ]
Conditions: spheroids with HUVEC and MSC; for IC50: curve of first compound; for viability, T/C: stronger effect = lower value
Outline: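 Three-cell-type spheroids modelling solid tumor plus stroma served as the readout system; POL inhibitors were tested individually and in combination, concentration ranges set by clinical Cmax where known.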

[1] = second compound 0.0316 µM, first compound 0.0316 µM
[2] = second compound 0.0316 µM, first compound 0.1 µM
[3] = second compound 0.0316 µM, first compound 0.316 µM
[4] = second compound 0.0316 µM, first compound 1 µM
[5] = second compound 0.0316 µM, first compound 3.16 µM
[6] = second compound 0.0316 µM, first compound 10 µM
[7] = second compound 0.1 µM, first compound 0.0316 µM
[8] = second compound 0.1 µM, first compound 0.1 µM
[9] = second compound 0.1 µM, first compound 0.316 µM
[10] = second compound 0.1 µM, first compound 1 µM
[11] = second compound 0.1 µM, first compound 3.16 µM
[12] = second compound 0.1 µM, first compound 10 µM
[13] = second compound 0.316 µM, first compound 0.0316 µM
[14] = second compound 0.316 µM, first compound 0.1 µM
[15] = second compound 0.316 µM, first compound 0.316 µM
[16] = second compound 0.316 µM, first compound 1 µM
[17] = second compound 0.316 µM, first compound 3.16 µM
[18] = second compound 0.316 µM, first compound 10 µM
[19] = second compound 1 µM, first compound 0.0316 µM
[20] = second compound 1 µM, first compound 0.1 µM
[21] = second compound 1 µM, first compound 0.316 µM
[22] = second compound 1 µM, first compound 1 µM
[23] = second compound 1 µM, first compound 3.16 µM
[24] = second compound 1 µM, first compound 10 µM
[25] = second compound 3.16 µM, first compound 0.0316 µM
[26] = second compound 3.16 µM, first compound 0.1 µM
[27] = second compound 3.16 µM, first compound 0.316 µM
[28] = second compound 3.16 µM, first compound 1 µM
[29] = second compound 3.16 µM, first compound 3.16 µM
[30] = second compound 3.16 µM, first compound 10 µM
[31] = second compound 10 µM, first compound 0.0316 µM
[32] = second compound 10 µM, first compound 0.1 µM
[33] = second compound 10 µM, first compound 0.316 µM
[34] = second compound 10 µM, first compound 1 µM
[35] = second compound 10 µM, first compound 3.16 µM
[36] = second compound 10 µM, first compound 10 µM
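Also: spheroids exposed to compounds for seven days before readout.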
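For viability, T/C in this document: 100% = DMSO vehicle control viability.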

CC1COCCN1c1cc(-c2ccnn2C)c2ccnc(-c3ccn[nH]3)c2n1 (stereo not drawn) + Nc1ccc(C#CCN(C(=O)Cc2ncc(C(F)(F)F)cc2C(F)(F)F)c2ccc(F)cc2)nn1
IC50 (second compound 0.0316 µM): 0.475 µM
IC50 (second compound 0.1 µM): > 10 µM
IC50 (second compound 0.316 µM): > 10 µM
IC50 (second compound 1 µM): 0.981 µM
IC50 (second compound 3.16 µM): 0.313 µM
IC50 (second compound 10 µM): 0.293 µM
viability, T/C [1]: 105%
viability, T/C [2]: 82.9%
viability, T/C [3]: 50.7%
viability, T/C [4]: 41.2%
viability, T/C [5]: 57%
viability, T/C [6]: 49.1%
viability, T/C [7]: 105%
viability, T/C [8]: 97.1%
viability, T/C [9]: 57.5%
viability, T/C [10]: 48.9%
viability, T/C [11]: 55.8%
viability, T/C [12]: 50.3%
viability, T/C [13]: 105%
viability, T/C [14]: 89.5%
viability, T/C [15]: 52.9%
viability, T/C [16]: 49.9%
viability, T/C [17]: 57.1%
viability, T/C [18]: 52.3%
viability, T/C [19]: 108%
viability, T/C [20]: 84.7%
viability, T/C [21]: 60.1%
viability, T/C [22]: 42.4%
viability, T/C [23]: 56.8%
viability, T/C [24]: 46%
viability, T/C [25]: 111%
viability, T/C [26]: 78.1%
viability, T/C [27]: 50.1%
viability, T/C [28]: 43.1%
viability, T/C [29]: 52.2%
viability, T/C [30]: 47.9%
viability, T/C [31]: 93.3%
viability, T/C [32]: 74.3%
viability, T/C [33]: 47.4%
viability, T/C [34]: 48.7%
viability, T/C [35]: 54.2%
viability, T/C [36]: 42.8%

CC1COCCN1c1cc(C2(S(C)(=N)=O)CC2)nc(-c2ccnc3[nH]ccc23)n1 (stereo not drawn) + Nc1ccc(C#CCN(C(=O)Cc2ncc(C(F)(F)F)cc2C(F)(F)F)c2ccc(F)cc2)nn1
IC50 (second compound 0.0316 µM): > 10 µM
IC50 (second compound 0.1 µM): > 10 µM
IC50 (second compound 0.316 µM): > 10 µM
IC50 (second compound 1 µM): > 10 µM
IC50 (second compound 3.16 µM): > 10 µM
IC50 (second compound 10 µM): > 10 µM
viability, T/C [1]: 98.7%
viability, T/C [2]: 98.4%
viability, T/C [3]: 88.9%
viability, T/C [4]: 95.8%
viability, T/C [5]: 89%
viability, T/C [6]: 74.7%
viability, T/C [7]: 99.4%
viability, T/C [8]: 91%
viability, T/C [9]: 96.7%
viability, T/C [10]: 79.6%
viability, T/C [11]: 84.1%
viability, T/C [12]: 71.5%
viability, T/C [13]: 94.5%
viability, T/C [14]: 115%
viability, T/C [15]: 96.3%
viability, T/C [16]: 90.8%
viability, T/C [17]: 77%
viability, T/C [18]: 70.5%
viability, T/C [19]: 98.3%
viability, T/C [20]: 105%
viability, T/C [21]: 98%
viability, T/C [22]: 96.4%
viability, T/C [23]: 74.8%
viability, T/C [24]: 65.3%
viability, T/C [25]: 94.1%
viability, T/C [26]: 98.9%
viability, T/C [27]: 95.3%
viability, T/C [28]: 76%
viability, T/C [29]: 83.7%
viability, T/C [30]: 67.5%
viability, T/C [31]: 99.3%
viability, T/C [32]: 101%
viability, T/C [33]: 86.8%
viability, T/C [34]: 94.7%
viability, T/C [35]: 84.9%
viability, T/C [36]: 72%

CCc1cc2c(N3CCc4c(cc(Cn5ccnc5)cc4-c4cn(C)nc4C(F)(F)F)C3=O)ccnc2c(OC)n1 + Nc1ccc(C#CCN(C(=O)Cc2ncc(C(F)(F)F)cc2C(F)(F)F)c2ccc(F)cc2)nn1
IC50 (second compound 0.0316 µM): > 10 µM
IC50 (second compound 0.1 µM): > 10 µM
IC50 (second compound 0.316 µM): > 10 µM
IC50 (second compound 1 µM): > 10 µM
IC50 (second compound 3.16 µM): > 10 µM
IC50 (second compound 10 µM): > 10 µM
viability, T/C [1]: 98%
viability, T/C [2]: 94.8%
viability, T/C [3]: 93.3%
viability, T/C [4]: 89.9%
viability, T/C [5]: 83%
viability, T/C [6]: 84%
viability, T/C [7]: 90.6%
viability, T/C [8]: 101%
viability, T/C [9]: 86%
viability, T/C [10]: 86.2%
viability, T/C [11]: 96.5%
viability, T/C [12]: 95.6%
viability, T/C [13]: 102%
viability, T/C [14]: 105%
viability, T/C [15]: 86.5%
viability, T/C [16]: 97.2%
viability, T/C [17]: 93.7%
viability, T/C [18]: 86.9%
viability, T/C [19]: 88.7%
viability, T/C [20]: 95.8%
viability, T/C [21]: 86.5%
viability, T/C [22]: 88.5%
viability, T/C [23]: 95.1%
viability, T/C [24]: 80.5%
viability, T/C [25]: 104%
viability, T/C [26]: 102%
viability, T/C [27]: 95%
viability, T/C [28]: 82.7%
viability, T/C [29]: 88.8%
viability, T/C [30]: 78.7%
viability, T/C [31]: 98.9%
viability, T/C [32]: 91.8%
viability, T/C [33]: 92.2%
viability, T/C [34]: 93.9%
viability, T/C [35]: 91.7%
viability, T/C [36]: 84.7%

COc1ccc([C@@H](O)c2cc(-c3ncnc4cc(N5CCOCC5)ccc34)c(F)cc2Cl)nn1 + Nc1ccc(C#CCN(C(=O)Cc2ncc(C(F)(F)F)cc2C(F)(F)F)c2ccc(F)cc2)nn1
IC50 (second compound 0.0316 µM): > 10 µM
IC50 (second compound 0.1 µM): > 10 µM
IC50 (second compound 0.316 µM): > 10 µM
IC50 (second compound 1 µM): > 10 µM
IC50 (second compound 3.16 µM): > 10 µM
IC50 (second compound 10 µM): > 10 µM
viability, T/C [1]: 105%
viability, T/C [2]: 86%
viability, T/C [3]: 89.1%
viability, T/C [4]: 89.4%
viability, T/C [5]: 84%
viability, T/C [6]: 87.5%
viability, T/C [7]: 102%
viability, T/C [8]: 93.2%
viability, T/C [9]: 92.7%
viability, T/C [10]: 88.1%
viability, T/C [11]: 78%
viability, T/C [12]: 87.3%
viability, T/C [13]: 119%
viability, T/C [14]: 105%
viability, T/C [15]: 104%
viability, T/C [16]: 79.5%
viability, T/C [17]: 88.9%
viability, T/C [18]: 81%
viability, T/C [19]: 95%
viability, T/C [20]: 106%
viability, T/C [21]: 85.2%
viability, T/C [22]: 83.7%
viability, T/C [23]: 86.1%
viability, T/C [24]: 86.3%
viability, T/C [25]: 90.1%
viability, T/C [26]: 107%
viability, T/C [27]: 90.7%
viability, T/C [28]: 80.2%
viability, T/C [29]: 83.7%
viability, T/C [30]: 87.8%
viability, T/C [31]: 94.1%
viability, T/C [32]: 90%
viability, T/C [33]: 90.1%
viability, T/C [34]: 99.7%
viability, T/C [35]: 81.8%
viability, T/C [36]: 77.4%
